Five substances from patent publication US5159069A, “Sulfated tannins and their salts” (Yamanouchi Pharmaceutical Co., Ltd., priority 1988, dated 1992) can be followed below.

Series [1] concerns avian myeloblastosis virus RTase. The class given is biochemical. To be noted: 37° C., 40 minutes. The procedure:
According to the method disclosed in Journal of Biological Chemistry, 1987, 262, p. 2187, the RTase inhibitory effect of the compounds of this invention is determined as follows:
More specifically, the compound of the present invention was added, in various amount, to a reaction solution which comprised 80 mM of Tris buffer solution (pH 8), 6 mM of magnesium chloride, 80 mM of potassium chloride, 10 mM of dithiothreitol, 20 μg/ml of polyadenylic acid, 0.02 μg/ml of oligodeoxy thymidine, 20 μM of tritium-labeled deoxythymidine-triphosphate and avian myeloblastosis virus RTase so that the total volume of the resultant solution was equal to 100 μl. After the reaction solution was incubated at 37° C. for 40 minutes, 100 μl of an ice-cooled 10% trichloroacetic acid solution was added to the solution to stop the reaction.
The reaction solution was filtered through a glass filter (Whatmann GF/C) and washed with a 10% trichloroacetic acid solution and then with ethanol. Thereafter, the glass filter was dried and examined by liquid scintillation counter.

The subject of series [2] is HTLV-IIIB-infected MT-4 cells. As to the kind of experiment: Inhibitory effect on expression of HIV-specific antigen (immunofluorescence). The class given is cell-based. The procedure: After drying the cells cultured in Experiment 1 on a slide glass, they were fixed with methanol for 3 minutes and treated with human anti-HIV-III positive serum (IF antibody titer×4096) which was diluted 1/1,000 time at 37° C. for 30 minutes. Thereafter, it was washed with phosphate-buffered saline (PBS) for 15 minutes and treated with an anti-human IgG conjugated with fluorescein-isothiocyanate at 37° C. for 30 minutes. It was again washed with PBS and then the number of fluorescent cells, more specifically expressed HIV-specific virus antigen proteins were determined with a fluorescence microscope. "%" is a ratio of the number of fluorescent ray emitting cells to the number of total cells.

Series [3] relates to HTLV-IIIB-non-infected MT-4 cells. The series is described as follows: Toxicity: influence on the proliferation of T cells. Type of series: cell-based, human. The procedure: (§1) HTLV-IIIB-infected MT-4 cells were inoculated on RPMI 1640 culture mediums containing 10% heat-inactivated fetal calf serum, 100 IU/ml of penicillin and 100 μg/ml of streptomycin, to which tannic acid-S had been added in a variety of concentrations, in a cell number of 300,000/ml and were cultured at 37° C. in a carbon dioxide incubator. After the cultivation for three days, one half of the culture medium was withdrawn and the survival rate and the viable count (X 10^4 /ml) of the MT-4 cells in the medium were determined by a trypan blue dye exclusion test. To the remaining cultured cells, an equivalent amount of RPMI 1640 culture medium each containing the same amount of the drugs were added, the cultivation was further continued for additional 3 days and likewise the survival rate and the viable count were determined.
As in Experiment 1, there was observed the influence of the compounds (drugs) of the present invention on the proliferation of HTLV-IIIB-non-infected MT-4 cells. The results thus observed are listed on the following Tables XI to XIV. The numerical values in these Tables mean viable count (X 10^4 /ml) and those in parentheses mean survival rates.

The test system of series [4] is HTLV-IIIB-infected MT-4 cells. The series is described as follows: Inhibitory effect of drugs on HIV-induced cell damage (trypan blue dye exclusion). Type of series: cell-based. The procedure:
In this experiment, there were used human MT4 cells, a human T4-positive cell line carrying adult T-cell leukemia causative virus, HTLV-1 (Gann Monogr.,1982, Vol. 28, pp. 219 -228) and HTLF-IIIB which is one of the HIV strains.
as §1

Series [5] relates to MOLT-4 and MOLT-4/HIV HTLV-IIIB cells. The series is described as follows: Inhibitory effect on giant cell formation by mixed cultivation of MOLT-4 and MOLT-4/HIV HTLV-IIIB cells. The class given is cell-based, human. As to conditions: 24 hours co-culture, co-culture control 18.5%. The procedure: This experiment was performed by the recently developed method of Yamamoto et al. (see Yamamoto et al., Virology, 1988, 164, p. 542; and J. Clinical Microbiology, 1988, 26, p. 1229).
MOLT-4 cells which are HTLV-I negative human T cell strain, and MOLT-4/HIVHT LV II IB cells which are persistently HIV-infected cells are separately cultured in a RPMI 1640 culture medium supplemented with 10% fetal calf serum to a cell density of 5×10^5 /ml respectively, these were mixed in a ratio of 1:1 and the drug was added thereto.
The mixed culture medium was cultured at 37° C. for 24 hours in a carbon dioxide incubator and the distribution of cell size was determined by a Cell Multisizer (available from Coulter Electronics, Ltd., Luton, England).
In Table IX, the rate of cell having a size of not less than 20 μm is expressed by "%". If MOLT-4 cells and MOLT-4/HIVHT LV II IB cells are separately cultured, the rates are 4.5 and 3.3% respectively, but it increased up to 18.5% when they are co-cultured. When tannic acid-S was added to the mixed culture medium in a concentration of 5 μg/ml, the rate was reduced to 8.2%.

[6] abbreviates: drug 50 μg/ml, culture period 3 days.
Where [7] appears, read: drug 50 μg/ml, culture period 6 days.
Where [8] appears, read: drug 100 μg/ml, culture period 3 days.
The mark [9] stands for this setting: drug 100 μg/ml, culture period 6 days.
The mark [10] stands for this setting: drug 200 μg/ml, culture period 3 days.
The mark [11] stands for this setting: drug 200 μg/ml, culture period 6 days.
Where [12] appears, read: drug 400 μg/ml, culture period 3 days.
Setting [13] is: drug 400 μg/ml, culture period 6 days.

A value given as a limit tells only on which side of the number the result lay.

On to “sodium salt of sulfuric acid ester of 1,2,3,4,6-penta-O-galloyl-β-D-glucose [Example 7]”, for which the “RTase Inhibitory Effect (IC50)” value in series [1] came out at 0.45 µg/mL.
With “sodium salt of sulfated 3,4,5- trigalloylquinic acid [Example 12]”, the “RTase Inhibitory Effect (IC50)” value in series [1] stood at 9.2 µg/mL.
With “sodium salt of sulfuric acid ester of 1,2,3,4,6-penta-O-galloyl-β-D-glucose [Example 9]”, the “RTase Inhibitory Effect (IC50)” value in series [1] is less than 0.096 µg/mL.
As for “sodium salt of ellagic acid sulfate [Ellagic acid-S]”, the “Ratio of fluorescent ray emitting cells to total cells” value (shortened to “Ratio”) is less than 1% in series [2] (setting [6]); 90% in series [2] (setting [7]); less than 1% in series [2] (setting [8]); 6.4% in series [2] (setting [9]); less than 1% in series [2] (setting [10]); less than 1% in series [2] (setting [11]). Further, the entries for the “Ratio” value in series [2] (setting [12]) and in series [2] (setting [13]) were 0% and less than 1%, respectively. For the same substance, the Viable count in series [3] (setting [6]) stood at 700000 mL⁻¹; in series [3] (setting [7]), 1.37e+06 mL⁻¹; in series [3] (setting [8]) it was 990000 mL⁻¹; in series [3] (setting [9]) it was 1.09e+06 mL⁻¹; in series [3] (setting [10]), 990000 mL⁻¹; in series [3] (setting [11]), 1.04e+06 mL⁻¹. Besides, the Viable count in series [3] (setting [12]) stood at 810000 mL⁻¹; in series [3] (setting [13]) it was 700000 mL⁻¹; in series [4] (setting [6]), 740000 mL⁻¹; in series [4] (setting [7]), 230000 mL⁻¹; in series [4] (setting [8]) it was 810000 mL⁻¹; in series [4] (setting [9]), 1.03e+06 mL⁻¹. For the same substance, the Viable count in series [4] (setting [10]) is 830000 mL⁻¹; in series [4] (setting [11]) it was 860000 mL⁻¹; in series [4] (setting [12]), 730000 mL⁻¹; in series [4] (setting [13]), 470000 mL⁻¹. For the same substance, the survival rate was 84 in series [3] (setting [6]); 89 in series [3] (setting [7]); 87 in series [3] (setting [8]); 83 in series [3] (setting [9]); 83 in series [3] (setting [10]); 85 in series [3] (setting [11]). The survival rate in series [3] (setting [12]) is 84; in series [3] (setting [13]) it was 82; in series [4] (setting [6]), 82%; in series [4] (setting [7]), 43%; in series [4] (setting [8]), 84%; in series [4] (setting [9]), 78%. Moreover, the survival rate in series [4] (setting [10]) turned out to be 87%; in series [4] (setting [11]), 83%; in series [4] (setting [12]), 82%; in series [4] (setting [13]), 89%. Moreover, the “Rate of Giant Cell (cells of size not less than 20 μm)” value is reported as 15.1% in series [5] (drug 25 μg/ml), 17.0% in series [5] (drug 50 μg/ml), 13.0% in series [5] (drug 100 μg/ml) and 9.5% in series [5] (drug 200 μg/ml).
“sodium salt of epicatechin sulfate [Epicatechin-S]”: the “Ratio” value in series [2] (setting [6]) was less than 1%; in series [2] (setting [7]), 90%; in series [2] (setting [8]), less than 1%; in series [2] (setting [9]) it was less than 1%; in series [2] (setting [10]) it was less than 1%; in series [2] (setting [11]), less than 1%. Moreover, the “Ratio” value in series [2] (setting [12]) and in series [2] (setting [13]) was less than 1% throughout. In addition, the Viable count in series [3] (setting [6]) turned out to be 1.14e+06 mL⁻¹; in series [3] (setting [7]), 1.38e+06 mL⁻¹; in series [3] (setting [8]), 1.1e+06 mL⁻¹; in series [3] (setting [9]), 1.47e+06 mL⁻¹; in series [3] (setting [10]) it was 1.11e+06 mL⁻¹; in series [3] (setting [11]), 1.33e+06 mL⁻¹. For the same substance, the Viable count was found to be 1.18e+06 mL⁻¹ in series [3] (setting [12]); 1.37e+06 mL⁻¹ in series [3] (setting [13]); 940000 mL⁻¹ in series [4] (setting [6]); 450000 mL⁻¹ in series [4] (setting [7]); 990000 mL⁻¹ in series [4] (setting [8]); 1.1e+06 mL⁻¹ in series [4] (setting [9]). For the same substance, the Viable count is 890000 mL⁻¹ in series [4] (setting [10]), 1.22e+06 mL⁻¹ in series [4] (setting [11]), 910000 mL⁻¹ in series [4] (setting [12]) and 1.33e+06 mL⁻¹ in series [4] (setting [13]). Besides, the survival rate in series [3] (setting [6]) turned out to be 91; in series [3] (setting [7]), 85; in series [3] (setting [8]) it was 86; in series [3] (setting [9]) it was 93; in series [3] (setting [10]), 83; in series [3] (setting [11]) it was 92. In addition, the survival rate in series [3] (setting [12]) was found to be 86; in series [3] (setting [13]) it was 92; in series [4] (setting [6]) it was 95%; in series [4] (setting [7]), 63%; in series [4] (setting [8]), 87%; in series [4] (setting [9]), 92%. The survival rate is reported as 86% in series [4] (setting [10]), 91% in series [4] (setting [11]), 85% in series [4] (setting [12]) and 91% in series [4] (setting [13]). For the same substance, the “Rate of Giant Cell (cells of size not less than 20 μm)” value in series [5] (drug 25 μg/ml) worked out at 14.2%; in series [5] (drug 50 μg/ml), 14.0%; in series [5] (drug 100 μg/ml), 15.1%; in series [5] (drug 200 μg/ml) it was 13.9%.
